“And” between values parts separate entries of the source, which are not always exact repeats. Equal values may be shown once. Read-outs that look alike come from different tables or passages of the source.
Key:
[1] = biological target: T1, JARID1B (Homo sapiens, UniProt Q9UGL1); experiment: FLAG-JARID1B histone demethylase assay with AlphaScreen detection (HTS and dose response); format: biochemical; details: for Validation result of HTS active: effect of the compound in the JARID1B AlphaScreen demethylase assay / Assay Signal (percent): validation of HTS actives; for Validation result of HTS active: effect of the compound in the JARID1B AlphaScreen demethylase assay: total signal before subtraction of artifact signal; for inhibition at 20 µM / Inhibitory effect (percent): high-throughput screen, compound 20 μM; for inhibition at 20 µM: read-out: Inhibitory effect (percent); for Assay − Artifact Signal (percent): assay signal minus artifact signal; for Assay Signal (percent): effect of compound in JARID1B AlphaScreen assay;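 as to Assay Signal (percent): compound tested at 20 µM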;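 as to Assay − Artifact Signal (percent): compound tested at 20 µM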;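 as to all read-outs here: FLAG-tagged JARID1B at 4 nM acting on a biotinylated H3K4me3 peptide, demethylation read by AlphaScreen luminescence, with hits checked against bio-H3K4me2 without enzyme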
T1 construct: The FLAG tagged full length JARID1B enzyme was expressed in Sf21 insect cells using FLAG-JARID1B baculoviruses; FLAG (N); made in house; host or cells: Sf21 insect cells (baculovirus)

[2] = AlphaScreen counterscreen against bio-H3K4me2 peptide in the absence of enzyme (artifact signal); details: for Artifact signal: effect of the compound when it is incubated with bio-H3K4me2 peptide: counterscreen, no enzyme; for Artifact Signal (percent): effect of the compound when incubated with bio-H3K4me2 peptide (counterscreen, no enzyme);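 as to all read-outs here: counterscreen run without enzyme against bio-H3K4me2 peptide to remove false positive hits from the JARID1 demethylase AlphaScreen screen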
[3] = standard demethylase conditions (10 μM α-KG, 50 μM Fe (II))

T1 sequence (Q9UGL1 whole entry): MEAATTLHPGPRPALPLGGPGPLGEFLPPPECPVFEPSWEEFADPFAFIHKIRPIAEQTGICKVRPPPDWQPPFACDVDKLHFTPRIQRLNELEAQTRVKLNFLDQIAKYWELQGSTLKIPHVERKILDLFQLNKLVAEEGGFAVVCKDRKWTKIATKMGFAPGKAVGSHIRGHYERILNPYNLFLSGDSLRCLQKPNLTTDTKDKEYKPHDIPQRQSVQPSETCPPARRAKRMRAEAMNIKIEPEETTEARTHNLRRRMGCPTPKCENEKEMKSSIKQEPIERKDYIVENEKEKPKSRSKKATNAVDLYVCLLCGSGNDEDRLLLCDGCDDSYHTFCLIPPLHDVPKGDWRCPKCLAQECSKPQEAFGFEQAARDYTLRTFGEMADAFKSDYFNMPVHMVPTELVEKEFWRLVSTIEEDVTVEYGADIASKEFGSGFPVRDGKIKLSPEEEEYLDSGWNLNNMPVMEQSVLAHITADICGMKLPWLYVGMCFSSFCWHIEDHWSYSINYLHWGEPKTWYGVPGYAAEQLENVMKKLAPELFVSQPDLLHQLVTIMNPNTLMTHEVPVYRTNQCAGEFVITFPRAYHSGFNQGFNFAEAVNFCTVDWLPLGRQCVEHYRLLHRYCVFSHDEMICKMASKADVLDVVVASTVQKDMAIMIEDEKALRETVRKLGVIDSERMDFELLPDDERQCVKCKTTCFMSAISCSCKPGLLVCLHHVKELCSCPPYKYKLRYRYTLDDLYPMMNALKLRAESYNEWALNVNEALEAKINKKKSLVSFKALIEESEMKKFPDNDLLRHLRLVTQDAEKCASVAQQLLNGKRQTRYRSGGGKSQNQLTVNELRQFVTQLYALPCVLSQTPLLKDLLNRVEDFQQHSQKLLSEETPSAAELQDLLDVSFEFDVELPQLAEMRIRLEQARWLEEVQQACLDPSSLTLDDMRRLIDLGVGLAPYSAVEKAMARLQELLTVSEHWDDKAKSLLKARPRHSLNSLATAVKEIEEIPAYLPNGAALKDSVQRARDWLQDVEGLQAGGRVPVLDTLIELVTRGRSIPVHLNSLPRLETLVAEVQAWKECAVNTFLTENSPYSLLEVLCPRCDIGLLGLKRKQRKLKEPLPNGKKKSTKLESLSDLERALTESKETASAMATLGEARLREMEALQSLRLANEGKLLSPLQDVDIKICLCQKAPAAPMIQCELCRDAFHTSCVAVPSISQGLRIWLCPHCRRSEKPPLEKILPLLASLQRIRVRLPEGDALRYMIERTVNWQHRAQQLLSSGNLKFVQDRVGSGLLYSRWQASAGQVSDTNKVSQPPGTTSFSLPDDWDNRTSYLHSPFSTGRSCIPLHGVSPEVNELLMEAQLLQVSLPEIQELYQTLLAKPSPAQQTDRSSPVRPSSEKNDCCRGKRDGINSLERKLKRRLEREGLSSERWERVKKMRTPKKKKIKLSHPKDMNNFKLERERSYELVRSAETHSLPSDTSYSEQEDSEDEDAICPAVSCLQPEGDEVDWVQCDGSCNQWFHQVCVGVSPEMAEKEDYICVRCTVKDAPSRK

Compound | Validation result of HTS active: effect of the compound in the JARID1B AlphaScreen demethylase assay [1] | Artifact signal: effect of the compound when it is incubated with bio-H3K4me2 peptide [2] | inhibition at 20 µM [1, 3] [%] | Assay − Artifact Signal (percent) [1] [%] | Assay Signal (percent) [1] | Artifact Signal (percent) [2] | Inhibitory effect (percent) [1, 3] [%] | inhibition at 20 µM ([1]; IDs marked *: additional hits under reaction condition with 1 mM α-KG) [%]
Cn1c(=O)n(C)c2cc(S(=O)(=O)NNc3ccccc3)ccc21 [YU153899] | 8.44 | 0.54 | – | – | – | – | – | –
CN(C)CCn1c2c(c3ccccc31)CCCn1cnnc1-2.Cl [YU153907] | 1.57 | −2.05 | 41.2 | – | – | – | – | –
c1ccc(-c2nn3c(Cn4cnc5ccccc54)nnc3s2)cc1 [YU153935] | – | – | 40.5 | 21.66 | 14.67% | −6.99% | – | –
c1cncc(-c2nn3c(Cn4cnc5ccccc54)nnc3s2)c1 [YU154091] | – | – | 40 | 24.37 | 29.87% | 5.50% | – | –
O=C(NC1CCCCC1)c1ccc(NC(=O)c2ccccc2O)cc1 [YU154737] | – | – | 45 | 23.65 | 28.23% | 4.58% | – | –
O=C(O)c1cc(N(Cc2ccccc2O)Cc2cc(O)ccc2O)ccc1O [YU154829, LAVENDUSTIN A, reference compound] | – | – | 50.3 | 30.24 | 38.57% | 8.32% | – | –
N#CC(C#N)=Cc1cc(O)c(O)c(O)c1 [YU154832, TYRPHOSTIN 25, reference compound] | – | – | 53.7 | 17.87 | 23.08% | 5.21% | – | –
Oc1cc(O)cc(/C=C/c2ccc(O)c(O)c2)c1 [YU154843, PICEATANNOL, reference compound] | – | – | 34 | 18.12 | 13.28% | −4.85% | – | –
CN(C)CCCn1cc(C2=C(c3c[nH]c4ccccc34)C(=O)NC2=O)c2ccccc21 [YU154851, GF 109203X, reference compound] | 5.76 | 5.46 | 40.7 | – | – | – | – | –
Cn1cc(C2=C(c3cn(CCCSC(=N)N)c4ccccc34)C(=O)NC2=O)c2ccccc21 [YU154853, Ro 31-8220, reference compound] | 41.07 | 38.79 | 44 | – | – | – | – | –
O=C(O)c1cc(NCc2cc(O)ccc2O)ccc1O [YU154859, 2-HYDROXY-5-(2,5- DIHYDROXYBENZYL- AMINO)BENZOIC ACID, reference compound] | – | – | 46.4 | 42.61 | 46.26% | 3.65% | – | –
O=c1c(O)c(-c2ccc(O)c(O)c2)oc2cc(O)cc(O)c12 [YU154882, QUERCETIN, reference compound] | – | – | 86 | – | 100.88% and 78.65% | 78.83% and 68.48% | 93.51 | –
COCc1cc(O)c(O)c(O)c1-c1c(COC)cc(O)c(O)c1O [YU154887, 2,2,3,3,4,4- HEXAHYDROXY-1,1- BIPHENYL-6,6- DIMETHANOL DIMETHYL ETHER, reference compound] | – | – | 103 | 57.15 | 99.57% | 42.41% | – | –
Oc1ccc2c(c1)OCC1(O)Cc3cc(O)c(O)cc3C21 (centres unmarked) [YU154998, BRAZILIN, reference compound] | – | – | 70.3 | 15.98 | 15.51% | −0.48% | – | –
O=c1c(O)cc([C@H]2Oc3cc(O)cc(O)c3C[C@H]2O)cc2c([C@H]3Oc4cc(O)cc(O)c4C[C@H]3O)cc(O)c(O)c12 [YU155003, THEAFLAVIN, reference compound] | – | – | 60.4 | 13.49 | 60.81% | 47.32% | – | –
Oc1cc2c(cc1O)C1c3ccc(O)c(O)c3OCC1(O)C2 (centres unmarked) [YU155005, HAEMATOXYLIN, reference compound] | – | – | 101 | 64.59 | 98.90% | 34.32% | – | –
COc1ccc(-c2coc3cc(O)ccc3c2=O)c(O)c1O [YU155016, KOPARIN, reference compound] | – | – | – | 13.76 | 28.09% | 14.33% | – | 42.3

Compound | Validation result of HTS active: effect of the compound in the JARID1B AlphaScreen demethylase assay [1] | Artifact signal: effect of the compound when it is incubated with bio-H3K4me2 peptide [2] | inhibition at 20 µM [1, 3] [%] | Assay − Artifact Signal (percent) [1] [%] | Assay Signal (percent) [1] | Artifact Signal (percent) [2] | Inhibitory effect (percent) [1, 3] [%] | inhibition at 20 µM ([1]; IDs marked *: additional hits under reaction condition with 1 mM α-KG) [%]
O=C1C=C2C[C@@]3(O)COc4cc(O)ccc4C3=C2C=C1O [YU155025, BRAZILEIN, reference compound] | – | – | 78.8 | 9.26 | 9.12% | −0.14% | – | –
C=C[C@@H](C1=CC(=O)C(OC)=C(OC)C1=O)c1ccccc1 [YU155075, 3,4-DIMETHOXY- DALBERGIONE, reference compound] | – | – | 75.9 | 38.83 | 49.97% | 11.14% | – | –
Oc1cc(O)c2c(c1)O[C@H](c1cc(O)c(O)c(O)c1)[C@H](O)C2 [YU155087, EPIGALLOCATECHIN, reference compound] | – | – | 55.5 | 19.74 | 44.50% | 24.76% | – | –
O=C(Oc1cc(O)cc2c1C[C@@H](OC(=O)c1cc(O)c(O)c(O)c1)[C@@H](c1cc(O)c(O)c(O)c1)O2)c1cc(O)c(O)c(O)c1 [YU155091, EPIGALLOCATECHIN 3,5-DIGALLATE, reference compound] | −0.05 | −3.13 | 92.2 | – | – | – | – | –
O=C(O)c1cc(O)c(=O)c2c(O)c(O)c(O)cc2c1 [YU155193, PURPUROGALLIN-4- CARBOXYLIC ACID, reference compound] | −1.37 | −3.21 | 97.5 | – | – | – | – | –
O=c1c(O)c(-c2ccc(O)c(O)c2)oc2cc(O)ccc12 [YU155255, FISETIN, reference compound] | – | – | 45.8 | 22.49 | 91.26% | 68.78% | – | –
O=C1C=C2CC3(O)COc4c(ccc(O)c4O)C3=C2C=C1O (centres unmarked) [YU155257, HEMATEIN, reference compound] | 104.73 | 99.07 | 105 | – | – | – | – | –
O=c1cc(-c2ccccc2)oc2cc(O)c(O)c(O)c12 [YU155285, BAICALEIN, reference compound] | 0.59 | 1.01 | 65.2 | – | – | – | – | –
O=c1c(O)c(-c2cc(O)c(O)c(O)c2)oc2cc(O)cc(O)c12 [YU155300, MYRICETIN, reference compound] | 74.84 | 69.07 | 72.1 | – | – | – | – | –
O=c1cc(-c2cc(O)c(O)c(O)c2)oc2cc(O)cc(O)c12 [YU155308, HIERACIN, reference compound] | 34.84 | 92.13 | 40.7 | – | – | – | – | –
CC(C)(C#N)O[C@@H]1O[C@H](CO)[C@@H](O)[C@H](O)[C@H]1O [YU155312, LINAMARIN, reference compound] | – | – | 60.3 | 99.23 | 92.68% | −6.55% | – | –
O=C(O[C@@H]1Cc2c(O)cc(O)cc2O[C@@H]1c1cc(O)c(=O)c2c(O)c(O)cc([C@H]3Oc4cc(O)cc(O)c4C[C@H]3O)c2c1)c1cc(O)c(O)c(O)c1 [YU155347, THEAFLAVIN MONOGALLATES, reference compound] | 103.69 | 95.69 | 104 | – | – | – | – | –
O=c1c(O)c(-c2ccc(O)c(O)c2)oc2c(O)c(O)cc(O)c12 [YU155360, GOSSYPETIN, reference compound] | – | – | 103 | 18.96 | 100.77% | 81.81% | – | –
C#CCCCCCCCCCCCC(O)CC(O)COC(C)=O (centres unmarked) [YU155369, AVOCADYNE ACETATE, reference compound] | – | – | 45.1 | 45.03 | 44.82% | −0.21% | – | –
CC(C)=CCc1c2c(c3occ(-c4ccc(O)c(O)c4)c(=O)c3c1O)C=CC(C)(C)O2 [YU155407, POMIFERIN, reference compound] | 16.14 | 10.52 | – | – | – | – | 91.09 | –
O=c1c(-c2cc(O)c(O)c(O)c2)coc2cc(O)c(O)c(O)c12 [YU155411, IRIGENOL, reference compound] | – | – | 94.9 | 31.75 | 22.64% | −9.11% | – | –
